Reference: US12534465B2, “5H-pyrrolo[3,2-d]pyrimidine-2,4-diamino compounds and antibody conjugates thereof” (SUTRO BIOPHARMA, INC., priority 2019, dated 2026)

Biological target: T1, human TLR8 (Homo sapiens, UniProt Q9NR97)
T1 construct: host or cells: HEK293
T1 sequence (Q9NR97 27-1041): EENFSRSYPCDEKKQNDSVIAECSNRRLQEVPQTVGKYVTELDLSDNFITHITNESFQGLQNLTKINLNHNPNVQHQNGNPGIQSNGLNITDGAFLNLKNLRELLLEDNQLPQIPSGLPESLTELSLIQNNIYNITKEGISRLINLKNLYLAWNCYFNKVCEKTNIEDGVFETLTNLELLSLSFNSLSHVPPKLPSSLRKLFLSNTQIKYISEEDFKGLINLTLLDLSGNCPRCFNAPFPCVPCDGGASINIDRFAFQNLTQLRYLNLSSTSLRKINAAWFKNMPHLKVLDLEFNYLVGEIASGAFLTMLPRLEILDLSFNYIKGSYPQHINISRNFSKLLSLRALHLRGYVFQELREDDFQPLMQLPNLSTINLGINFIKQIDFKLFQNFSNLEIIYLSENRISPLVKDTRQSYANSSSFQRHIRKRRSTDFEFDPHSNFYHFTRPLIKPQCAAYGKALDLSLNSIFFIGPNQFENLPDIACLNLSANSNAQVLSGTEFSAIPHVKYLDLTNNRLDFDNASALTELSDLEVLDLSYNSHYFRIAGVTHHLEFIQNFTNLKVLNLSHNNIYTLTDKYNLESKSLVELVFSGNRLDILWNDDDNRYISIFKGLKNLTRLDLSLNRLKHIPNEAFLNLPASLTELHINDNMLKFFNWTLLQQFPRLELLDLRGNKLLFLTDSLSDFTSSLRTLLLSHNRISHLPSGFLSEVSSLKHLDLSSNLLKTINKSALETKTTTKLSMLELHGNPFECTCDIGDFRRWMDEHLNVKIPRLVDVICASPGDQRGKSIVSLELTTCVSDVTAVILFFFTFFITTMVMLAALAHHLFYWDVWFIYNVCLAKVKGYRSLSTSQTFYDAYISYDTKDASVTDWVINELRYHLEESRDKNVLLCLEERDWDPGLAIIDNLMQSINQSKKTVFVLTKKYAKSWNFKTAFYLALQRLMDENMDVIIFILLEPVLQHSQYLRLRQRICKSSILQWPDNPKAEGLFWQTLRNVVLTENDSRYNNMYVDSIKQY
Assay: HEK293-humanTLR8 SEAP reporter assay (Example 8)
Type: cell-based
Conditions: HEK293-hTLR8 SEAP reporter cells, 24 hrs
Description: In this example, the in vitro activity of compounds to activate human TLR7 (or human TLR8 or mouse TLR7) pathway was evaluated on HEK293 reporter cells transfected with human TLR7 (or human TLR8 or mouse TLR7) and an inducible SEAP (secreted embryonic alkaline phosphatase) reporter gene. The SEAP reporter gene is placed under the control of the IFN-β minimal promoter fused to five NF-κB and AP-1-binding sites. Stimulation with a TLR7 agonist activates NF-κB and AP-1 which induces the production of SEAP. Levels of SEAP were determined by HEK-Blue Detection medium.
The in vitro activity of compounds on TLR7 (human and mouse) and TLR8 (human only) reporter cell lines was assessed as follows. 5-(2-methoxy-4-(piperazin-1-ylmethyl)benzyl)-N4-pentyl-5H-pyrrolo[3,2-d]pyrimidine-2,4-diamine (Compound 1) is a compound used for comparison and has the structure shown below:
HEK293-humanTLR7 (hTLR7), HEK293-mouseTLR7 (mTLR7) and HEK293-humanTLR8 (hTLR8) reporter cell lines were purchased from Invivogen and cell lines were maintained in the manufacturer's recommended culture medium with required supplemental antibiotics. On the day of assay, the cells were harvested with Accutase and counted by the Vi-CELL Cell Viability Analyzers. Cells were resuspended in HEK blue detection medium and a total of 10,000 cells were seeded in each well of a 384-well flat bottom plate. Serial dilutions of test compounds (1:4 serial dilution starting from 5 μM) were added into treatment wells and assay plates were cultured at 37° C. in a CO2 incubator for 24 hrs. The plates were then read by spectrophotometry at 640 nm. Data was fitted with non-linear regression analysis, using a log(inhibitor) vs. response-variable slope, 3-parameter fit with GraphPad Prism. There result was reported in Table 1 as EC50 (the midpoint of the curve, or concentration at which 50% of the maximum effect was observed).

EC50 | Structure (SMILES)
338 nM | CCCCCNc1nc(N)nc2ccn(Cc3ccc(CN4CCNCC4)cc3OC)c12 [Compound 1, 5-(2-methoxy-4-(piperazin-1-ylmethyl)benzyl)-N4-pentyl-5H-pyrrolo[3,2-d]pyrimidine-2,4-diamine, reference compound]
342 nM | CCCCCNc1nc(N)nc2ccn(Cc3ccc(CN4CC5(CNCCO5)C4)cc3OC)c12 [Compound 10, 5-[[2-methoxy-4-(5-oxa-2,8-diazaspiro[3.5]nonan-2-ylmethyl)phenyl]methyl]-N4-pentyl-pyrrolo[3,2-d]pyrimidine-2,4-diamine]

Structure (SMILES) | EC50
CCCCCNc1nc(N)nc2ccn(Cc3ccc(CN4CC(NC)C4)cc3OC)c12 [Compound 2, 5-(2-methoxy-4-((3-(methylamino)azetidin-1-yl)methyl)benzyl)-N4-pentyl-5H-pyrrolo[3,2-d]pyrimidine-2,4-diamine] | 367 nM
